From US7713986B2, “Compounds and methods for treatment of chemotherapy-induced anemia” (priority 2006, dated 2010)

How the values were obtained:
[1] = tested on: female Harlan nude mice implanted with H460 tumor cells; assay: H-460 tumor-bearing nude mice given chemotherapeutic agent with or without Compound A: premature morbidity and hematocrit
Description: To examine the effect of methods and compounds of the present invention on treatment of chemotherapy-induced anemia, the following study was performed. The human H-460 lung cancer cell line used was obtained from the National Cancer Institute. (Brower et al., (1986) Cancer Res 46:798-806.) Animals were maintained in a HEPA-filtered environment during the experimental period. Cages, food, and bedding were autoclaved. Animal diets were obtained from Harlan Teklad (Madison, Wis.). Hydrochloric acid, 0.15% (v/v), was added to the drinking water.
Compounds of the invention were pre-formulated in an aqueous vehicle consisting of 0.1% (w/w) Polysorbate 80 (JT Baker) and 0.5% (w/w) high viscosity carboxymethyl cellulose sodium (Spectrum) to achieve a final 10 ml/kg dosing (oral gavage).
A stock tumor was established by subcutaneously injecting a cell suspension into nude mice. The resulting tumor was maintained in nude mice subcutaneously as tumor stock prior to use. Tumor implantation was performed when the stock tumors were in log phase of growth. Before implantation, tumor tissue was harvested from stock mice and placed in RPMI-1640 medium. Necrotic tissues were dissected away and viable tissues were cut into 1-2 mm^2 pieces. In these experiments, 1×10^7H460 tumor cells were implanted subcutaneously to the flanks of female Harlan nude mice.
Treatment (administration of compounds of the present invention) was initiated when the inoculated tumors reached approximately 100 mm^3, and continued for four weeks.
These studies followed the guidelines of the Tumor Growth Delay (TGD) type, using a protocol that required individual animals to be humanely euthanized after reaching a set endpoint of tumor volume greater than or equal to 2 cc. At this endpoint, blood was also sampled and hematocrit (HCT) was determined.
These two chemotherapeutic are representative of two broad classes of conventional anti-tumor therapeutics: microtubule poisons (Paclitaxcel); and DNA-directed agents, including the sub-classification of DNA alkylating agents (Carboplatin). […]

[2] = Body weight of H-460 tumor-bearing nude mice given chemotherapeutic agent with or without Compound A; format: in vivo, female Harlan nude mice
Description: To examine the effects of compounds and methods of the present invention on weight loss associated with chemotherapeutic agents, the following study was performed. This experiment was carried out essentially as described above in Example 2. […] Cages, food, and bedding were autoclaved. Animal diets were obtained from Harlan Teklad (Madison, Wis.).
Body weights were monitored over time for individual animals. Changes in individual animal body weights over time are shown in FIGS. 3-8, and are presented as percent of initial body weight (treatment day 1), which was set at 100%.

[3] = tested on: animal model of chemotherapy-induced anemia; format: in vivo, Sprague Dawley male rats
Description: Fifteen Sprague Dawley male rats (280-300 g) were obtained from Charles River Laboratories. On day 0, rats were treated by intraperitoneal (i.p.) injection with a single dose of saline (control; n=3) at 8 ml/kg, or Cisplatin (CP; Bedford Laboratories, Bedford Ohio) at either 7 mg/kg (7 ml/kg; n=6) or 10 mg/kg (10 ml/kg; n=6). Blood samples (0.2 ml) were collected on days 5, 9, and 16 as follows. Animals were anesthetized with isoflurane and 0.2 ml of blood was collected from the tail vein into a MICROTAINER EDTA-2K tube (Becton-Dickinson). Blood samples were processed for hematocrit as described above to determine the degree of anemia produced in each animal.
Beginning on day 19 of the study, one half of each cisplatin-treated group (n=3×2) and all of the control group were treated by oral gavage once per day for 5 consecutive days with a 2 ml/kg volume of 0.5% CMC (Sigma-Aldrich). […] Blood samples (0.5 ml) were collected as described above immediately prior to treatment and 4 days after treatment initiation. Blood samples were analyzed for CBC and reticulocyte counts as described above. On day 9 after initiation of oral treatment, a blood sample (0.1 ml) was collected and processed for hematocrit as described above.

N.N.O=C([O-])C1(C(=O)[O-])CCC1.[Pt+2] [Carboplatin]
hematocrit over time ([1]; Carboplatin alone (closed circles in FIG. 2)): significant decrease
# animals morbid prematurely ([1]; Cmpd A 60 mg/kg p.o., Carboplatin 120 mg/kg i.p. Q7d): 6/10
# animals reaching study endpoint ([1]; Cmpd A 60 mg/kg p.o., Carboplatin 120 mg/kg i.p. Q7d, endpoint tumor volume >= 2 cc): 4/10
body weight pattern compared to non-treated vehicle control animals ([2]; chemotherapeutic agent alone (FIG. 5, FIG. 7)): pattern of weight loss
animals with more than a 10% weight gain at any time during the study ([2]; number of animals of 10): 3 of 10
animals that ended the study at a body weight below that at the start ([2]; number of animals of 10 per group): 7 of 10

O=C(O)CNC(=O)c1nc(Cl)c2ccccc2c1O [Compound A, N—((1-chloro-4-hydroxy-isoquinoline-3-carbonyl)-amino)-acetic acid]
hematocrit in Cisplatin-treated animals ([3]; 4 days after initiating treatment with Compound A, oral gavage once per day for 5 days (FIG. 1A)): increased hematocrit
percent circulating reticulocytes ([3]; Cisplatin-treated animals, compared to those without Compound A (FIG. 1B)): increased
hematocrit levels versus non-treated counterparts ([3]; Cisplatin-treated rats, day 9 post-treatment (FIG. 1A)): significantly higher
body weight change at end of study ([2]; mouse, in vivo): overall net weight gain
body weights during the time course of the study ([2]; mouse, in vivo, 60 mg/kg): increased gradually

CC(=O)O[C@H]1C(=O)[C@@]2(C)[C@H]([C@H](OC(=O)c3ccccc3)[C@]3(O)C[C@H](OC(=O)[C@H](O)[C@@H](NC(=O)c4ccccc4)c4ccccc4)C(C)=C1C3(C)C)[C@]1(OC(C)=O)CO[C@@H]1C[C@@H]2O [Paclitaxel]
animals that ended the study at a body weight below that at the start ([2]; mouse, in vivo): 2 of 10
body weight pattern compared to non-treated vehicle control animals ([2]; mouse, in vivo): pattern of weight loss
